Reference: ChEMBL document CHEMBL4732126, “Design, synthesis, and biodistribution studies of new analogues of marine alkaloids: Potent in vitro and in vivo fungicidal agents against Candida spp” (Eur J Med Chem, 2021)
Active and inactive are the calls of the source. The calls are words filed in the database; no cut-off is given here.

Assays:
Candida albicans [1] = experiment: Antifungal activity against Candida albicans ATCC 18804 assessed as reduction in fungal growth incubated for 48 hrs by broth microdilution method; format: functional
Candida albicans [2] = experiment: Antifungal activity against Candida albicans isolate 2 assessed as reduction in fungal growth incubated for 48 hrs by broth microdilution method; format: functional
Candida albicans [3] = experiment: Antifungal activity against Candida albicans isolate 3 assessed as reduction in fungal growth incubated for 48 hrs by broth microdilution method; format: functional
Candida albicans [4] = experiment: Antifungal activity against Candida albicans isolate 4 assessed as reduction in fungal growth incubated for 48 hrs by broth microdilution method; format: functional
Candida albicans [5] = experiment: Antifungal activity against Candida albicans isolate 9 assessed as reduction in fungal growth incubated for 48 hrs by broth microdilution method; format: functional
Candida albicans [6] = experiment: Antifungal activity against Candida albicans isolate 12 assessed as reduction in fungal growth incubated for 48 hrs by broth microdilution method; format: functional
Candida albicans [7] = experiment: Antifungal activity against Candida albicans isolate 13 assessed as reduction in fungal growth incubated for 48 hrs by broth microdilution method; format: functional
Candida albicans [8] = experiment: Fungicidal activity against Candida albicans ATCC 18804 assessed as fungal killing incubated for 48 hrs followed by plating on SD agar plate; format: functional; conditions: read-out: MFC99.9
Pichia kudriavzevii = experiment: Fungicidal activity against Candida krusei ATCC 34135 assessed as fungal killing incubated for 48 hrs followed by plating on SD agar plate; format: functional; conditions: read-out: MFC99.9
Candida albicans [9] = experiment: Fungicidal activity against Candida albicans isolate 1 assessed as fungal killing incubated for 48 hrs followed by plating on SD agar plate; format: functional; conditions: read-out: MFC99.9
Candida albicans [10] = experiment: Fungicidal activity against Candida albicans isolate 3 assessed as fungal killing incubated for 48 hrs followed by plating on SD agar plate; format: functional; conditions: read-out: MFC99.9
Candida albicans [11] = experiment: Fungicidal activity against Candida albicans isolate 8 assessed as fungal killing incubated for 48 hrs followed by plating on SD agar plate; format: functional; conditions: read-out: MFC99.9
Candida albicans [12] = experiment: Fungicidal activity against Candida albicans isolate 12 assessed as fungal killing incubated for 48 hrs followed by plating on SD agar plate; format: functional; conditions: read-out: MFC99.9
Candida albicans [13] = experiment: Fungicidal activity against Candida albicans ATCC 10231 assessed as reduction in fungal load at 15.6 ug/ml incubated for 4 hrs followed by inoculation on SD agar plate for 48 hrs by time-kill assay; format: functional; conditions: dose 15.6 µg/ml; time 52 hrs
Candida albicans [14] = experiment: Disruption of cell membrane in Candida albicans ATCC 10231 assessed as increase in number of invagination at 2 times of MIC incubated for 1 hr by SEM analysis
Candida albicans [15] = experiment: Antifungal activity against Candida albicans ATCC 10231 assessed as reduction in fungal growth incubated for 48 hrs in presence of ergosterol by broth microdilution method; format: functional
Candida albicans [16] = experiment: Antifungal activity against Candida albicans ATCC 10231 assessed as reduction in fungal growth incubated for 48 hrs in presence of sorbitol by broth microdilution method; format: functional
Candida albicans [17] = experiment: Antifungal activity against Candida albicans ATCC 10231 assessed as inhibition of yeast to hypha morphological transition at 15.6 ug/ml measured upto 72 hrs by microscopic analysis; format: functional, organism-based; conditions: dose 15.6 µg/ml, time hrs <=72
Candida albicans [18] = experiment: Antibiofilm activity against Candida albicans ATCC 10231 assessed as reduction in mature biofilm at 125 ug/ml incubated for 48 hrs by crystal violet staining based spectrophotometric analysis relative to control; format: functional
Candida albicans [19] = experiment: Antibiofilm activity against Candida albicans ATCC 10231 assessed as reduction in mature biofilm incubated for 48 hrs by crystal violet staining based spectrophotometric analysis relative to control; format: functional, organism-based; conditions: dose 0.48-125 µg/ml
[20] = Toxicity in Swiss mouse assessed as body weight at 1 mg/kg, ip measured after 24 hrs (reference value: 36.25 +/- 0.31 g); format: organism-based; conditions: in vivo
[21] = Toxicity in Swiss mouse assessed as relative lung weight at 3 mg/kg, ip measured after 24 hrs (reference value: 6.35 +/- 0.68 g); format: organism-based; conditions: in vivo
[22] = Toxicity in Swiss mouse assessed as relative lung weight at 20 mg/kg, ip measured after 24 hrs (reference value: 6.35 +/- 0.68 g); format: organism-based; conditions: in vivo
[23] = Toxicity in Swiss mouse assessed as relative spleen weight at 3 mg/kg, ip measured after 24 hrs (reference value: 4.02 +/- 0.59 g); format: organism-based; conditions: in vivo
[24] = Toxicity in Swiss mouse assessed as relative spleen weight at 20 mg/kg, ip measured after 24 hrs (reference value: 4.02 +/- 0.59 g); format: organism-based; conditions: in vivo
[25] = Toxicity in Swiss mouse assessed as relative heart weight at 20 mg/kg, ip measured after 24 hrs (reference value: 4.75 +/- 0.60 g); format: organism-based; conditions: in vivo
[26] = Toxicity in Swiss mouse assessed as relative liver weight at 10 mg/kg, ip measured after 24 hrs (reference value: 49.42 +/- 7.17 g); format: organism-based; conditions: in vivo
[27] = Toxicity in Swiss mouse assessed as death of organism at 0.5 to 20 mg/kg, ip measured for 24 hrs; format: organism-based; conditions: in vivo, dose 0.5-20 mg/kg
Candida albicans [28] = experiment: In vivo antifungal activity in Swiss mouse infected with Candida albicans ATCC 10231 assessed as reduction in fungal load in liver at 0.5 mg/kg, ip administered at 2, 24 and 48 hrs post-infection and measured per gm of organ at 24 hrs post-last dose (reference value: 1.80); format: functional; conditions: time 72 hrs
Candida albicans [29] = experiment: In vivo antifungal activity in Swiss mouse infected with Candida albicans ATCC 10231 assessed as reduction in fungal load in kidney at 0.5 mg/kg, ip administered at 2, 24 and 48 hrs post-infection and measured per gm of organ at 24 hrs post-last dose (reference value: 2.47); format: functional; conditions: time 72 hrs
Candida albicans [30] = experiment: In vivo antifungal activity in Swiss mouse infected with Candida albicans ATCC 10231 assessed as reduction in fungal load in kidney at 1 mg/kg, ip administered at 2, 24 and 48 hrs post-infection and measured per gm of organ at 24 hrs post-last dose (reference value: 2.47); format: functional; conditions: time 72 hrs
[31] = Toxicity in Swiss mouse assessed as effect on heart at 0.5 to 10 mg/kg, ip measured after 24 hrs by macroscopic analysis; format: organism-based; conditions: in vivo, dose 0.5-10 mg/kg
[32] = Toxicity in Swiss mouse infected with Candida albicans ATCC 10231 assessed as reduction in body weight at 10 mg/kg, ip administered at 2, 24 and 48 hrs post-infection and measured at 24 hrs after last dose; format: organism-based; conditions: in vivo, 72 h
[33] = Toxicity in Swiss mouse infected with Candida albicans ATCC 10231 assessed as effect on liver weight at 10 mg/kg, ip administered at 2, 24 and 48 hrs post-infection and measured at 24 hrs after last dose; format: organism-based; conditions: in vivo, 72 h
[34] = Toxicity in Swiss mouse infected with Candida albicans ATCC 10231 assessed as effect on liver at 10 mg/kg, ip administered at 2, 24 and 48 hrs post-infection and measured at 24 hrs after last dose by macroscopic analysis; format: organism-based; conditions: in vivo, 72 h
[35] = Toxicity in Swiss mouse infected with Candida albicans ATCC 10231 assessed as effect on kidney at 10 mg/kg, ip administered at 2, 24 and 48 hrs post-infection and measured at 24 hrs after last dose by macroscopic analysis; format: organism-based; conditions: in vivo, 72 h
[36] = Toxicity in Swiss mouse infected with Candida albicans ATCC 10231 assessed as effect on spleen at 10 mg/kg, ip administered at 2, 24 and 48 hrs post-infection and measured at 24 hrs after last dose by macroscopic analysis; format: organism-based; conditions: in vivo, 72 h

## [Cl-].[N-]=[N+]=NCCCCCCCCCCCCOCCCc1ccc[n+](Cc2ccccc2)c1
Candida albicans [1]
  MIC: 7.8 µg/mL
Candida albicans [2]
  MIC: 7.8 µg/mL
Candida albicans [3]
  MIC: 7.8 µg/mL
Candida albicans [4]
  MIC: 1.95 µg/mL
Candida albicans [5]
  MIC: 15.6 µg/mL
Candida albicans [6]
  MIC: 7.8 µg/mL
Candida albicans [7]
  MIC: 7.8 µg/mL
Candida albicans [8]
  MFC: 31.2 µg/mL
Pichia kudriavzevii
  MFC: 7.8 µg/mL
Candida albicans [9]
  MFC: 7.8 µg/mL
Candida albicans [10]
  MFC: 7.8 µg/mL
Candida albicans [11]
  MFC: 7.8 µg/mL
Candida albicans [12]
  MFC: 7.8 µg/mL
Candida albicans [13]
  log(activity): 2
Candida albicans [14]
  Activity: Active
Candida albicans [15]
  MIC: 7.8 µg/mL
Candida albicans [16]
  MIC: 7.8 µg/mL
Candida albicans [17]
  Activity: Active
Candida albicans [18]
  inhibition at 125 µg/mL: 40%
Candida albicans [19]
  Activity: Dose-dependent effect
[20]
  Activity: 37.87 g
[21]
  Activity: 5.19 g
[22]
  Activity: 5.38 g
[23]
  Activity: 4.07 g
[24]
  Activity: 2.93 g
[25]
  Activity: 4.93 g
[26]
  Activity: 43.58 g
[27]
  Activity: Non-Toxic
Candida albicans [28]
  Activity: 0 log10CFU
Candida albicans [29]
  Activity: 0 log10CFU
Candida albicans [30]
  Activity: 0 log10CFU
[31]
  Activity: Non-Toxic
[32]
  Activity: Toxic
[33]
  Activity: Non-Toxic
[34]
  Activity: Non-Toxic
[35]
  Activity: Non-Toxic
[36]
  Activity: Non-Toxic
